The values that follow come from patent publication US10889564B2, “Tetrahydroindazoles and medical uses thereof” (Genase Therapeutics B.V., priority 2015, dated 2021).

Assay [1] concerns the target T1, human dihydroorotate dehydrogenase (DHODH) (Homo sapiens (Human), UniProt Q02127). Put plainly: DHODH enzyme assay, Assay B (DCIP absorbance, 384 well). To be noted: 4 nM recombinant human DHODH. The assay is classed as biochemical. Here is the method: (§1) Inhibition of human dihydroorotate dehydrogenase (DHODH) by example compounds as described herein was determined using one of two assays as described below.
Example compounds as described herein were dispensed with an acoustic liquid handler, Echo 550 (Labcyte) to a maximum volume of 50 nl per well in a 384 well plate. DHODH enzyme assays were performed with 4 nM recombinant human DHODH (purified essentially as described by Walse et. al., Biochemistry, 47, 8929-8936 (2008)). The reaction mixture consisted of 2 mM DL-dihydroorotic acid (#D7003, Sigma-Aldrich), 100 μM 3,4-dimethoxy-5-methyl-p-benzoquinone (#D9150, Sigma-Aldrich), and 200 μM 2,6-dichlorophenolindophenol sodium salt (DCIP) (#D1878, Sigma-Aldrich) in enzyme buffer (50 mM Tris-HCl pH 8.0, 0.1% Triton X-100, 150 mM KCl) in a final volume of 50 μl per well. A stock solution of 80 mM DCIP was prepared in DMSO just before use. Loss in absorbance by chromogen DCIP was measured at 595 nm at RT every 2 min for an hour with a plate reader (Envision, Perkin Elmer).

Another assay deals with ARN8 melanoma cells. Put plainly: Sulforhodamine B assay of cancer cell growth and/or viability. The format is cell-based. Conditions: 72 hours; for viability at 2 µM: ARN8. Here is the method: ARN8 melanoma cells are seeded at a density of 500 cells per well of a 96 well plate. Following 24 hours of incubation, cells are treated with increasing concentrations of the compound of Example 8 in the absence or presence of excess uridine (100 micromolar). Cells are incubated for 72 hours after which the growth medium is removed from the cells and replaced by […] of 1× sterile PBS and 50 μL of 40% trichloroacetic acid in dH2O. Samples are incubated at 4° C. for 1 h to fix the cells. The plate is then washed with 3 changes of water with all liquid allowed to drain from the plate. […] of 0.1% sulforhodamine B in 1% acetic acid in H2O is added to each well and incubated for 30 minutes. Excess dye is washed out with three changes of 1% acetic acid in H2O with all liquid allowed to drain from the plate. The remaining dye is solubilized in 100 microliters of 10 mM un-buffered basic Tris per well and absorbance read at 570 nm.
A general note: In SRB staining, fixed cells bind dye roughly in proportion to their protein.

Assay [2] concerns the target T1, human dihydroorotate dehydrogenase (DHODH). Put plainly: DHODH enzyme assay, Assay A (DCIP absorbance). The format is biochemical. Conditions: 6 nM recombinant human DHODH. The procedure: as §1
DHODH enzyme assays were performed with 6 nM recombinant human DHODH (purified essentially as described by Walse et. al., Biochemistry, 47, 8929-8936 (2008)). The reaction mixture consisted of 1 mM DL-dihydroorotic acid (#D7003, Sigma-Aldrich), 100 μM 3,4-dimethoxy-5-methyl-p-benzoquinone (#D9150, Sigma-Aldrich), and 100 μM 2,6-dichlorophenolindophenol sodium salt (DCIP) (#D1878, Sigma-Aldrich) in enzyme buffer (50 mM Tris-HCl pH 8.0, 0.1% Triton X-100, 150 mM KCl). A stock solution of 20 mM DCIP was prepared in enzyme buffer and filtered through Whatman paper just before use. Loss in absorbance by chromogen DCIP was measured at 595 nm at RT every 3 min for an hour.

T1 sequence (Q02127 29-395): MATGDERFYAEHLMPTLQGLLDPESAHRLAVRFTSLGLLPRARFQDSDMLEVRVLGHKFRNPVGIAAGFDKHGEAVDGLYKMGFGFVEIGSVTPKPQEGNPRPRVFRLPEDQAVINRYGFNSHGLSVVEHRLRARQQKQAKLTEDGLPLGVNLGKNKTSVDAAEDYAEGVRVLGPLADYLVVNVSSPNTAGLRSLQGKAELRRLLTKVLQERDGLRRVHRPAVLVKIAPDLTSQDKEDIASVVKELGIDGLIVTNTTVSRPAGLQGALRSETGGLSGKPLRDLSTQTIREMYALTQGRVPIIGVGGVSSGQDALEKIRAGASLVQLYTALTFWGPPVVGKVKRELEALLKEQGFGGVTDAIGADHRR

For `Cc1cnc(C(=O)N[C@@H]2CCCc3c2cnn3-c2ccccc2F)cn1` (single isomer, unassigned) [Example 15, N-[(4R*)-1-(2-fluorophenyl)-4,5,6,7-tetrahydro-1H-indazol-4-yl]-5-methylpyrazine-2-carboxamide], the IC50 (in general, the concentration that inhibits the measured activity by half) in assay [1] amounted to 0.735 µM.
As to `O=C(N[C@H]1CCCc2c1cnn2-c1ccccc1F)c1ccccn1` [Example 2, (S)—N-(1-(2-Fluorophenyl)-4,5,6,7-tetrahydro-1H-indazol-4-yl)picolinamide], the viability – broadly, a read-out of living cells in per cent, often relative to untreated cells – at 2 µM in the assay with ARN8 melanoma cells (absence of excess uridine) came out at 100%.
Take `O=C(N[C@@H]1CCCc2c1cnn2-c1ccccc1F)c1ccccn1` [Example 3, (R)—N-(1-(2-fluorophenyl)-4,5,6,7-tetrahydro-1H-indazol-4-yl)picolinamide]: the viability at 2 µM with ARN8 melanoma cells (absence of excess uridine) was 30%.
Consider `O=C(NC1CCCc2c1cnn2-c1ccccc1F)c1cscn1` (centres unmarked) [Example 4, N-[1-(2-fluorophenyl)-4,5,6,7-tetrahydro-1H-indazol-4-yl]-1,3-thiazole-4-carboxamide], for which the IC50 in assay [2] came to 1.11 µM. Moreover, in the assay on ARN8 melanoma cells (absence of excess uridine), the viability at 2 µM stood at 52%.
Taken in the same sequence, the figures for `O=C(NC1CCCc2c1cnn2-c1ccc(F)cc1F)c1onc2c1CCCC2` (centres unmarked) [Example 5, N-(1-(2,4-difluorophenyl)-4,5,6,7-tetrahydro-1H-indazol-4-yl)-4,5,6,7-tetrahydrobenzo[c]isoxazole-3-carboxamide] were 0.29 µM and 22%.
For `Cc1cc(C(=O)NC2CCCc3c2cnn3-c2ccc(C)c(C)c2)no1` (centres unmarked) [Example 6, N-[1-(3,4-dimethylphenyl)-4,5,6,7-tetrahydro-1H-indazol-4-yl]-5-methyl-3-isoxazolecarboxamide], in that order: 5.83 µM and 105%.
With `COC(=O)c1ccc(C(=O)NC2CCCc3c2cnn3-c2ccccc2F)nc1` (centres unmarked) [Example 7, Methyl 6-({[1-(2-fluorophenyl)-4,5,6,7-tetrahydro-1H-indazol-4-yl]amino}carbonyl)nicotinate], the IC50 in assay [2] was greater than 10 µM. Moreover, in the assay with ARN8 melanoma cells (absence of excess uridine), the viability at 2 µM turned out to be 28%.
For the compound `O=C(NC1CCCc2c1cnn2-c1ccccc1F)c1onc2c1CCCC2` (centres unmarked) [Example 8, N-(1-(2-fluorophenyl)-4,5,6,7-tetrahydro-1H-indazol-4-yl)-4,5,6,7-tetrahydrobenzo[c]isoxazole-3-carboxamide], in assay [2], the IC50 came out at 0.032 µM. Moreover, in the assay with ARN8 melanoma cells (absence of excess uridine, FIG. 2), the “ARN8 melanoma cell growth and/or viability” value is “reduces ARN8 melanoma cell growth and/or viability”. Also, the “effect on ARN8 melanoma cell growth and/or viability with excess uridine” value in the assay with ARN8 melanoma cells (excess uridine (100 micromolar), FIG. 2) is given as “largely prevented by the addition of excess uridine”. Further, in the assay with ARN8 melanoma cells (absence of excess uridine), the viability at 2 µM was found to be 48%.
Regarding `COC(=O)c1ccc(C(=O)NC2CCCc3c2cnn3-c2cc(F)cc(F)c2)nc1` (centres unmarked) [Example 9, Methyl 6-({[1-(3,5-difluorophenyl)-4,5,6,7-tetrahydro-1H-indazol-4-yl]amino}carbonyl)nicotinate], the concentration for half-maximal inhibition (IC50) in assay [2] was greater than 10 µM. The viability at 2 µM in the assay on ARN8 melanoma cells (absence of excess uridine) was determined as 8%.
`O=C(N[C@@H]1CCCc2c1cnn2-c1ccccc1F)c1onc2c1CCCC2` [Example 14, N-[(4R)-1-(2-fluorophenyl)-4,5,6,7-tetrahydro-1H-indazol-4-yl]-4,5,6,7-tetrahydro-2,1-benzoxazole-3-carboxamide]: the IC50 in assay [1] came to 0.009 µM.
Still for that read-out and setting: to `Cc1ccccc1-n1ncc2c1CCC[C@H]2NC(=O)c1cc2ccccc2o1` [Example 17, N-[(4R)-1-(2-methylphenyl)-4,5,6,7-tetrahydro-1H-indazol-4-yl]-1-benzofuran-2-carboxamide] belongs 0.124 µM.
On the same count and under the same terms, to `Cc1ccccc1-n1ncc2c1CCC[C@H]2NC(=O)c1oc2ccccc2c1C` [Example 18, 3-methyl-N-[(4R)-1-(2-methylphenyl)-4,5,6,7-tetrahydro-1H-indazol-4-yl]-1-benzofuran-2-carboxamide] belongs 0.459 µM; to `Cc1ccccc1-n1ncc2c1CCC[C@H]2NC(=O)c1sccc1C` [Example 19, 3-methyl-N-[(4R)-1-(2-methylphenyl)-4,5,6,7-tetrahydro-1H-indazol-4-yl]thiophene-2-carboxamide], 0.136 µM.
Still for that read-out and setting: then `Cc1ccccc1-n1ncc2c1CCC[C@H]2NC(=O)c1ccccn1` [Example 20, N-[(4R)-1-(2-methylphenyl)-4,5,6,7-tetrahydro-1H-indazol-4-yl]pyridine-2-carboxamide], with 0.355 µM; and `Cc1ccccc1-n1ncc2c1CCC[C@H]2NC(=O)c1cccnc1O` [Example 21, 2-hydroxy-N-[(4R)-1-(2-methylphenyl)-4,5,6,7-tetrahydro-1H-indazol-4-yl]pyridine-3-carboxamide], with 0.881 µM.
As to `Cc1ccc(C(=O)N[C@@H]2CCCc3c2cnn3-c2ccccc2C)nc1` [Example 24, 5-methyl-N-[(4R)-1-(2-methylphenyl)-4,5,6,7-tetrahydro-1H-indazol-4-yl]pyridine-2-carboxamide], the IC50 in assay [1] came to 0.066 µM.
The same measure, in the same setting: then `Cc1ccccc1-n1ncc2c1CCC[C@H]2NC(=O)c1ncccc1C` [Example 26, 3-methyl-N-[(4R)-1-(2-methylphenyl)-4,5,6,7-tetrahydro-1H-indazol-4-yl]pyridine-2-carboxamide], with 0.096 µM; and `O=C(N[C@@H]1CCCc2c1cnn2-c1ccccc1F)c1noc2ccccc12` [Example 28, N-[(4R)-1-(2-fluorophenyl)-4,5,6,7-tetrahydro-1H-indazol-4-yl]-1,2-benzoxazole-3-carboxamide], with 0.018 µM.
The same measure, in the same setting: then `O=C(N[C@@H]1CCCc2c1cnn2-c1ccccc1F)c1nc2ccccc2o1` [Example 33, N-[(4R)-1-(2-fluorophenyl)-4,5,6,7-tetrahydro-1H-indazol-4-yl]-1,3-benzoxazole-2-carboxamide], with 0.088 µM.
Still for that read-out and setting: to `O=C(N[C@@H]1CCCc2c1cnn2-c1ccccc1F)c1cc2ccccc2[nH]1` [Example 35, N-[(4R)-1-(2-fluorophenyl)-4,5,6,7-tetrahydro-1H-indazol-4-yl]-1H-indole-2-carboxamide] belongs 2.67 µM; to `COc1cc(C(=O)N[C@@H]2CCCc3c2cnn3-c2ccccc2F)nc2ccccc12` [Example 38, (R)—N-(1-(2-fluorophenyl)-4,5,6,7-tetrahydro-1H-indazol-4-yl)-4-methoxyquinoline-2-carboxamide], 2.08 µM.
On to `O=C(N[C@@H]1CCCc2c1cnn2-c1ccccc1F)c1ccc(C(F)(F)F)cn1` [Example 40, N-[(4R)-1-(2-fluorophenyl)-4,5,6,7-tetrahydro-1H-indazol-4-yl]-5-(trifluoromethyl)pyridine-2-carboxamide], for which the 50% inhibitory concentration (IC50) in assay [1] turned out to be 2 µM.
For the compound `Cc1ccnc(C(=O)NC2CCCc3c2cnn3-c2ccccc2)c1` (centres unmarked) [Example 43, 4-methyl-N-(1-phenyl-4,5,6,7-tetrahydro-1H-indazol-4-yl)pyridine-2-carboxamide], in assay [1], the IC50 worked out at 0.441 µM.
The same measure, in the same setting: to `Cc1cccc(C(=O)N[C@@H]2CCCc3c2cnn3-c2ccccc2C)n1` [Example 45, 6-methyl-N-[(4R)-1-(2-methylphenyl)-4,5,6,7-tetrahydro-1H-indazol-4-yl]pyridine-2-carboxamide] belongs greater than 3 µM.
Still for that read-out and setting: then `O=C(N[C@@H]1CCCc2c1cnn2-c1ccccc1F)c1ncn2c1CCCC2` [Example 46, (R)—N-(1-(2-fluorophenyl)-4,5,6,7-tetrahydro-1H-indazol-4-yl)-5,6,7,8-tetrahydroimidazo[1,5-a]pyridine-1-carboxamide], with 0.006 µM; and `CC(C)OC(=O)c1cccc(-n2ncc3c2CCC[C@H]3NC(=O)c2noc3c2CCCC3)c1` [Example 52, Propan-2-yl-3-[(4R)-4-(4,5,6,7-tetrahydro-1,2-benzoxazole-3-amido)-4,5,6,7-tetrahydro-1H-indazol-1-yl]benzoate], with 0.011 µM; and `O=C(N[C@@H]1CCCc2c1cnn2-c1cccc(C(=O)N2CCOCC2)c1)c1noc2c1CCCC2` [Example 53, N-[(4R)-1-[3-(morpholine-4-carbonyl)phenyl]-4,5,6,7-tetrahydro-4H-indazol-4-yl]-4,5,6,7-tetrahydro-1,2-benzoxazole-3-carboxamide], with 0.22 µM.
